Reference: patent US9957264B2 (Merck Sharp & Dohme Corp., priority 2013, dated 2018)
Blank lines part the entries; values can stand above or below the molecule they belong to.

Legend:
[1] = target: JAK2 (recombinant purified GST-tagged catalytic domain) (Homo sapiens (Human), UniProt O60674); assay: Jak Biochemical HTRF Assay (JAK2); settings: [ATP] 8.5 μM
[2] = target: JAK1 (recombinant purified GST-tagged catalytic domain) (Homo sapiens (Human), UniProt P23458); assay: Jak Biochemical HTRF Assay (JAK1); settings: [ATP] 31.8 μM
How it was run: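 HTRF format, biotinylated peptide substrate; ATP-initiated reaction 120 min RT; EDTA quench + streptavidin-Dylight 650/Eu-anti-pY20 detection, 60 min RT; signal = 665/615 ratio ×10,000; normalized % inhibition, 4-parameter fit → IC50.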

Sequence of JAK1 (recombinant purified GST-tagged catalytic domain) (P23458 875-1153): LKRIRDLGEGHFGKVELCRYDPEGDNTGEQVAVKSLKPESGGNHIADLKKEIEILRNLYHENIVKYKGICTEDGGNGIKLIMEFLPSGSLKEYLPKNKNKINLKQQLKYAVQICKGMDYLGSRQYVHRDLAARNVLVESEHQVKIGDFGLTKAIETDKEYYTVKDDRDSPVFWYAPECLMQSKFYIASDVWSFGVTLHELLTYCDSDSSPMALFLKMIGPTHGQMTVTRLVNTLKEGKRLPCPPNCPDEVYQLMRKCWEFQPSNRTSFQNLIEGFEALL
Sequence of JAK2 (recombinant purified GST-tagged catalytic domain) (O60674 849-1124): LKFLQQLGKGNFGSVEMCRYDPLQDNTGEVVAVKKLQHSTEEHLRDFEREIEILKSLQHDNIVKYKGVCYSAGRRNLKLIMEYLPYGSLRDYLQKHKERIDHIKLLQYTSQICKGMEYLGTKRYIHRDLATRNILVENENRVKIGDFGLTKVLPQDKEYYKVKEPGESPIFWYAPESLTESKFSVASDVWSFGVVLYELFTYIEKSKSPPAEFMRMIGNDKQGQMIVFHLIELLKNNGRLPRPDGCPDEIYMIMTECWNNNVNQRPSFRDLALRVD

Compound: N#CC[C@@]1(n2nc(Nc3ccccc3)c3c(=O)[nH]ccc32)CCCOC1 [Example 5-27, (S)-2-(3-(4-oxo-3-(phenylamino)-4,5-dihydro-1H-pyrazolo[4,3-c]pyridin-1-yl)tetrahydro-2H-pyran-3-yl)acetonitrile]
- IC50 [1]: 2.81 nM
- IC50 [2]: 0.22 nM

Compound: CN(C)S(=O)(=O)c1ccc(Nc2nn([C@]3(CC#N)CCCOC3)c3cc[nH]c(=O)c23)cc1 [Example 5-28, (S)-4-((1-(3-(cyanomethyl)tetrahydro-2H-pyran-3-yl)-4-oxo-4,5-dihydro-1H-pyrazolo[4,3-c]pyridin-3-yl)amino)-N,N-dimethyl benzenesulfonamide]
- IC50 [1]: 0.29 nM
- IC50 [2]: 0.13 nM

Compound: CN(C)S(=O)(=O)c1ccc(Nc2nn([C@@]3(CC#N)CCCOC3)c3cc[nH]c(=O)c23)cc1 [Example 5-29, (R)-4-((1-(3-(cyanomethyl)tetrahydro-2H-pyran-3-yl)-4-oxo-4,5-dihydro-1H-pyrazolo[4,3-c]pyridin-3-yl)amino)-N,N-dimethyl benzenesulfonamide]
- IC50 [1]: 27.7 nM
- IC50 [2]: 13.5 nM

Compound: CS(=O)(=O)c1ccc(Nc2nn([C@@]3(CC#N)CCCOC3)c3cc[nH]c(=O)c23)cc1 [Example 5-30, (R)-2-(3-(3-((4-(methylsulfonyl)phenyl)amino)-4-oxo-4,5-dihydro-1H-pyrazolo[4,3-c]pyridin-1-yl)tetrahydro-2H-pyran-3-yl)acetonitrile]
- IC50 [1]: 58 nM
- IC50 [2]: 12.6 nM

Compound: CS(=O)(=O)c1ccc(Nc2nn([C@]3(CC#N)CCCOC3)c3cc[nH]c(=O)c23)cc1 [Example 5-31, (S)-2-(3-(3-((4-(methylsulfonyl)phenyl)amino)-4-oxo-4,5-dihydro-1H-pyrazolo [4,3-c]pyridin-1-yl)tetrahydro-2H-pyran-3-yl)acetonitrile]
- IC50 [1]: 1.64 nM
- IC50 [2]: 0.26 nM

Compound: CC(C)(C)OC(=O)[C@@H]1CC[C@@](CC#N)(n2nc(Nc3ccc(S(C)(=O)=O)cc3)c3c(=O)[nH]ccc32)CO1 [Example 5-39, (2S,5S)-tert-butyl 5-(cyanomethyl)-5-(3-((4-(methylsulfonyl)phenyl)amino)-4-oxo-4,5-dihydro-1H-pyrazolo[4,3-c]pyridin-1-yl)tetrahydro-2H-pyran-2-carboxylate]
- IC50 [1]: 0.43 nM
- IC50 [2]: 0.06 nM

Compound: CC(C)(C)OC(=O)[C@H]1CC[C@](CC#N)(n2nc(Nc3ccc(S(C)(=O)=O)cc3)c3c(=O)[nH]ccc32)CO1 [Example 5-40, (2R,5R)-tert-butyl 5-(cyanomethyl)-5-(3-((4-(methylsulfonyl)phenyl)amino)-4-oxo-4,5-dihydro-1H-pyrazolo [4,3-c]pyridin-1-yl) tetrahydro-2H-pyran-2-carboxylate]
- IC50 [1]: 14.6 nM
- IC50 [2]: 2.06 nM

Compound: CN(C)S(=O)(=O)c1ccc(Nc2nn([C@]3(CC#N)CC[C@@H](C(=O)OC(C)(C)C)OC3)c3cc[nH]c(=O)c23)cc1 [Example 5-43, (2S,5S)-tert-butyl 5-(cyanomethyl)-5-(3-((4-(N,N-dimethylsulfamoyl)phenyl)amino)-4-oxo-4,5-dihydro-1H-pyrazolo[4,3-c]pyridin-1-yl)tetrahydro-2H-pyran-2-carboxylate]
- IC50 [1]: 0.14 nM
- IC50 [2]: 0.07 nM

Compound: CC(C)(C)OC(=O)[C@@H]1CC[C@@](CC#N)(n2nc(Nc3ccc4c(c3)CN(CC(F)(F)F)S4(=O)=O)c3c(=O)[nH]ccc32)CO1 [Example 5-44, (2S,5S)-tert-butyl 5-(cyanomethyl)-5-(3-((1,1-dioxido-2-(2,2,2-trifluoroethyl)-2,3-dihydrobenzo[d]isothiazol-5-yl)amino)-4-oxo-4,5-dihydro-1H-pyrazolo[4,3-c]pyridin-1-yl)tetrahydro-2H-pyran-2-carboxylate]
- IC50 [1]: 0.37 nM
- IC50 [2]: 0.14 nM

Compound: CC(C)(C)OC(=O)N1CC(CC#N)(n2nc(Nc3ccc(S(=O)(=O)C(F)(F)F)cc3)c3c(=O)[nH]ccc32)C1 [Example 5-47, tert-butyl 3-(cyanomethyl)-3-[4-oxo-3-({4-[(trifluoromethyl)sulfonyl]phenyl}amino)-4,5-dihydro-1H-pyrazolo[4,3-c]pyridin-1-yl]azetidine-1-carboxylate]
- IC50 [1]: 108 nM
- IC50 [2]: 7.27 nM

Compound: CC(C)(C)OC(=O)[C@@H]1CC[C@@](CC#N)(n2nc(Nc3ccccc3)c3c(=O)[nH]ccc32)CO1 [Example 5-54, (2S,5S)-tert-butyl 5-(cyanomethyl)-5-(4-oxo-3-(phenylamino)-4,5-dihydro-1H-pyrazolo[4,3-c]pyridin-1-yl)tetrahydro-2H-pyran-2-carboxylate]
- IC50 [1]: 1.62 nM
- IC50 [2]: 0.12 nM

Compound: CN1Cc2cc(Nc3nn([C@]4(CC#N)CC[C@@H](C(=O)OC(C)(C)C)OC4)c4cc[nH]c(=O)c34)ccc2S1(=O)=O [Example 5-55, (2S,5S)-tert-butyl 5-(cyanomethyl)-5-(3-((2-methyl-1,1-dioxido-2,3-dihydrobenzo[d]isothiazol-5-yl)amino)-4-oxo-4,5-dihydro-1H-pyrazolo[4,3-c]pyridin-1-yl)tetrahydro-2H-pyran-2-carboxylate]
- IC50 [1]: 0.12 nM
- IC50 [2]: 0.05 nM

Compound: CC(C)S(=O)(=O)c1ccc(Nc2nn(C3(CC#N)CCN(C(=O)C(C)(F)F)CC3)c3cc[nH]c(=O)c23)cc1 [Example 5-57, 2-(1-(2,2-difluoropropanoyl)-4-(3-((4-(isopropylsulfonyl)phenyl)amino)-4-oxo-4,5-dihydro-1H-pyrazolo[4,3-c]pyridin-1-yl)piperidin-4-yl)acetonitrile]
- IC50 [1]: 0.13 nM
- IC50 [2]: 0.08 nM

Compound: CN(C(C)(C)C)S(=O)(=O)c1ccc(Nc2nn(C3(CC#N)CCN(C(=O)C(C)(F)F)CC3)c3cc[nH]c(=O)c23)cc1 [Example 5-58, N-(tert-butyl)-4-((1-(4-(cyanomethyl)-1-(2,2-difluoropropanoyl)piperidin-4-yl)-4-oxo-4,5-dihydro-1H-pyrazolo[4,3-c]pyridin-3-yl)amino)-N-methylbenzenesulfonamide]
- IC50 [1]: 0.18 nM
- IC50 [2]: 0.14 nM

The next lines start with the values.

- IC50 [1]: 0.3 nM
- IC50 [2]: 0.19 nM
Compound: CC(C)(C)OC(=O)N1CCC(CC#N)(n2nc(Nc3ccc4c(c3)CN(CC(F)(F)F)S4(=O)=O)c3c(=O)[nH]ccc32)CC1 [Example 5-25, tert-butyl 4-(cyanomethyl)-4-(3-((1,1-dioxido-2-(2,2,2-trifluoroethyl)-2,3-dihydrobenzo[d]isothiazol-5-yl)amino)-4-oxo-4,5-dihydro-1H-pyrazolo[4,3-c]pyridin-1-yl)piperidine-1-carboxylate]

- IC50 [1]: 0.1 nM
- IC50 [2]: 0.09 nM
Compound: CC(F)(F)C(=O)N1CCC(CC#N)(n2nc(Nc3ccc4c(c3)CN(C(C)(C)C)S4(=O)=O)c3c(=O)[nH]ccc32)CC1 [Example 5-26, 2-(4-(3-((2-(tert-butyl)-1,1-dioxido-2,3-dihydrobenzo [d]isothiazol-5-yl)amino)-4-oxo-4,5-dihydro-1H-pyrazolo[4,3-c]pyridin-1-yl)-1-(2,2-difluoro-propanoyl)piperidin-4-yl) acetonitrile]

- IC50 [1]: 43.5 nM
- IC50 [2]: 3.53 nM
Compound: CC(C)(C)OC(=O)N1CC(CC#N)(n2nc(Nc3ccnc(F)c3)c3c(=O)[nH]ccc32)C1 [Example 5-46, tert-butyl 3-(cyanomethyl)-3-{3-[(2-fluoropyridin-4-yl)amino]-4-oxo-4,5-dihydro-1H-pyrazolo[4,3-c]pyridin-1-yl}azetidine-1-carboxylate]

- IC50 [1]: 2.26 nM
- IC50 [2]: 0.22 nM
Compound: CC(C)(C)OC(=O)N1CCC(CC#N)(n2nc(Nc3ccc(F)cc3)c3c(=O)[nH]ccc32)CC1 [Example 5-48, tert-butyl 4-(cyanomethyl)-4-{3-[(4-fluorophenyl)amino]-4-oxo-4,5-dihydro-1H-pyrazolo[4,3-c]pyridin-1-yl}piperidine-1-carboxylate]

- IC50 [1]: 0.19 nM
- IC50 [2]: 0.12 nM
Compound: CC(C)(C)NS(=O)(=O)c1ccc(Nc2nn(C3(CC#N)CCN(C(=O)C(C)(F)F)CC3)c3cc[nH]c(=O)c23)cc1 [Example 5-56, N-(tert-butyl)-4-((1-(4-(cyanomethyl)-1-(2,2-difluoropropanoyl)piperidin-4-yl)-4-oxo-4,5-dihydro-1H-pyrazolo[4,3-c]pyridin-3-yl)amino)benzene-sulfonamide]

- IC50 [1]: 0.15 nM
- IC50 [2]: 0.1 nM
Compound: CC(F)(F)C(=O)N1CCC(CC#N)(n2nc(Nc3ccc(S(=O)(=O)C(C)(C)C)cc3)c3c(=O)[nH]ccc32)CC1 [Example 5-59, 2-(4-(3-((4-(tert-butylsulfonyl)phenyl)amino)-4-oxo-4,5-dihydro-1H-pyrazolo[4,3-c]pyridin-1-yl)-1-(2,2-difluoro-propanoyl)piperidin-4-yl)acetonitrile]

- IC50 [1]: 0.46 nM
- IC50 [2]: 1.07 nM
Compound: CC(C)(C)OC(=O)N1CCC(CC#N)(n2nc(Nc3cc(Cn4cccn4)cc(Cn4cccn4)c3)c3c(=O)[nH]ccc32)CC1 [Example 5-60, tert-butyl 4-(3-(3,5-bis((1H-pyrazol-1-yl)methyl)phenylamino)-4-oxo-4,5-dihydropyrazolo[4,3-c]pyridin-1-yl)-4-(cyanomethyl)piperidine-1-carboxylate]

- IC50 [1]: 12.7 nM
- IC50 [2]: 0.64 nM
Compound: Cc1cc(C)cc(Nc2nn(C3(CC#N)CCN(C(=O)OC(C)(C)C)CC3)c3cc[nH]c(=O)c23)c1 [Example 5-61, tert-butyl 4-(cyanomethyl)-4-(3-(3,5-dimethylphenylamino)-4-oxo-4,5-dihydropyrazolo[4,3-c]pyridin-1-yl)piperidine-1-carboxylate]

- IC50 [1]: 0.32 nM
- IC50 [2]: 0.31 nM
Compound: CC(C)(C)OC(=O)N1CCC(CC#N)(n2nc(Nc3cc(Cn4ccnn4)cc(Cn4ccnn4)c3)c3c(=O)[nH]ccc32)CC1 [Example 5-62, tert-butyl 4-(3-(3,5-bis((1H-1,2,3-triazol-1-yl)methyl)phenylamino)-4-oxo-4,5-dihydropyrazolo[4,3-c]pyridin-1-yl)-4-(cyanomethyl)piperidine-1-carboxylate]
